Test results as given in ChEMBL document CHEMBL1201862, “PubChem BioAssay data set” (2004).
Activity calls are given as the source filed them.

Columns and labels:
[1] = cAMP pathway inhibition in counterscreen cell line – TR-FRET cAMP detection, counter-screen for MC4R biased antagonist project, dose response (AID 602305); type: functional, cell-based;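 note: U2OS cells stimulated with forskolin near its EC80 as the cAMP inducer; potency is for inhibition of forskolin-stimulated cAMP signaling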
[2] = fluconazole-exposed Candida albicans growth modulators – fluorescence, retest, confirmation (AID 2467); type: functional, cell-based
[3] = biological target: Nonstructural protein 1 (Influenza A virus, UniProt Q194T2); type: functional, Influenza A virus (A/California/07/2009(H1N1))
[4] = biological target: Melanocortin receptor 4 (Homo sapiens, UniProt P32245); test: inhibitors of MC4R cAMP signaling – cell-based, TR-FRET, biased antagonists, dose response (AID 602298); type: functional;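 note: antagonist potency against agonist-stimulated cAMP production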
[5] = biological target: Protein-tyrosine kinase 2-beta (Homo sapiens, UniProt Q14289);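 note: potency of inhibitors of PYK2 kinase phosphorylation of poly-GT substrate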
[6] = NIH-3T3 fibroblast cytotoxicity, dose response, cytotoxicity control, cell-based, fluorescence, Alamar Blue, secondary assay (AID 2327); type: functional;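 note: NIH-3T3 mouse fibroblasts cultured with fluconazole at 8 µg/mL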
[7] = blockers of HIV-1 ZM109 envelope-driven cell-cell fusion – HeLa effector, CEM target cells, luciferase, cherry-pick, dose response (AID 652058); type: functional, cell-based;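 note: luciferase signal from HIV-1 Env mediated cell-cell fusion of effector and target cells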
[8] = blockers of HIV-1 envelope-mediated cell-cell fusion – cherry-pick, dose response (AID 652057); type: functional, cell-based
[9] = HIV-1 AD8 envelope cell-cell fusion blockers – cherry-pick, dose response (AID 652062); type: functional, cell-based;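 note: luciferase signal from cell-cell fusion driven by HIV-1 clade B AD8 Env; potency is for inhibitors of fusion seen as a drop in luminescence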
[10] = viability loss in CEM21 cells – cell-based, CellTiter-Glo luminescence, cherry-picked, cytotoxicity control for viral fusion inhibitor project, dose response (AID 652042); type: functional;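 note: potency for signal decrease meaning cytotoxicity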
[11] = biological target: Protein Tat (Human immunodeficiency virus type 1 group M subtype B (isolate HXB2)(HIV-1), UniProt P04608); type: functional;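 note: tat binding to TAR RNA read out by fluorescence polarization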
[12] = biological target: T1, Nuclear receptor subfamily 0 group B member 1 (Homo sapiens, UniProt P51843); type: functional, cell-based;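 note: HEK293T cells transfected with SF-1 and DAX-1 plus StAR promoter luciferase reporter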
T1 sequence (P51843 whole entry): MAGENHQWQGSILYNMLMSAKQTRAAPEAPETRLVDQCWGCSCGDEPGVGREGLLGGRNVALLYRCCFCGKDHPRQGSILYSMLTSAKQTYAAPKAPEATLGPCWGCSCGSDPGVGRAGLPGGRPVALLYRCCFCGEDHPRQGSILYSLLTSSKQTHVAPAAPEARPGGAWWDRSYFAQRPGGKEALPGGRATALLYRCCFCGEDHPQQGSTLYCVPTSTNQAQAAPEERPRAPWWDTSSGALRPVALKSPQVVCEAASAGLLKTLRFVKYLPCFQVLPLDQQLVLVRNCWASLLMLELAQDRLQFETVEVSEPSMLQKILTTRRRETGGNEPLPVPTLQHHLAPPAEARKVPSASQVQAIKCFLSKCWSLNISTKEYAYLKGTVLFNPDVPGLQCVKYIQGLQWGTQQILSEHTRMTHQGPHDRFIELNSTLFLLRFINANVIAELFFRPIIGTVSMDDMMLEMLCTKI

[13] = cells; type: functional, cell-based
[14] = biological target: COUP transcription factor 2 (Homo sapiens, UniProt P24468); test: Luminescence-based cell-based high throughput dose response assay to identify inhibitors of COUP-TFII (NR2F2).; type: functional;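 note: HEK293 cells transiently cotransfected with COUP-TFII expression vector and reporter; luciferase reporter luminescence driven by COUP-TFII from the pX2-168 reporter plasmid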
[15] = general cell-killing toxicity readout – plate reader, dry powder samples, cytotoxicity control for PAX8 inhibitor project, dose response (AID 743021); type: functional, cell-based
[16] = OVCAR-3 cell viability loss – plate reader, dry powder samples, PAX8 inhibitor project, dose response (AID 743044); type: functional, cell-based
[17] = biological target: Paired box protein Pax-8 (Homo sapiens, UniProt Q06710); test: PAX8 transcriptional activity inhibition in RMG-I – RMG-I cells, luciferase, cherry-pick, dose response (AID 687027); type: functional, cell-based;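 note: luciferase reporter driven by Pax8 target thyroperoxidase promoter measured by SteadyGlo luminescence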
[18] = toxicity toward immortalized ovarian surface epithelium – cell-based, plate reader, dry powder samples, cytotoxicity control for PAX8 inhibitor project, dose response (AID 743045); type: functional
[19] = OVCAR8 cell viability loss – plate reader, dry powder samples, PAX8 project, dose response (AID 743197); type: functional, cell-based; settings: OVCAR-8
[20] = A549 lung cell viability reduction – CellTiter-Glo luminescence, cherry-pick, cytotoxicity control, dose response (AID 743484); type: functional, cell-based
[21] = ATP-based viability loss in HEK293T cells – cell-based, CellTiter-Glo luminescence, cherry-picked samples, set 4, cytotoxicity control, dose response (AID 743441); type: functional; settings: HEK293
[22] = Luminescence Cell-Based Dose Response to Identify Activators of Luciferase Translation or Activity in H4-C Neuroglioblastoma Cells. [Related pubchem assays: 1829 (Project Summary), 1814 (Primary HTS)]; type: functional
[23] = Luminescence Cell-Based Dose Response to Identify Activators of 5'UTR Stem-Loop Driven Prion Protein mRNA Translation in H4-C Neuroglioblastoma Cells. [Related pubchem assays: 1829 (Project Summary), 1814 (Primary HTS)]; type: functional
[24] = Luminescence Cell-Based Dose Response HTS to Identify Activators of Luciferase Translation or Activity in H4 […] Cells. [Related pubchem assays: 1829 (Project Summary), 1814 (Primary HTS)]; type: functional
[25] = test system: H4; test: Luminescence Cell-Based Dose Response HTS to Identify Activators of 5'UTR Stem-Loop Driven Prion Protein mRNA Translation in H4 Neuroglioblastoma Cells. [Related pubchem assays: 1829 (Project Summary), 1814 (Primary HTS)]; type: functional; settings: Homo sapiens
[26] = Luminescence Cell-Based Dose Confirmation to Identify Activators of 5'UTR Stem-Loop Driven Alpha-Synuclein mRNA Translation in H4 Neuroglioblastoma Cells. [Related pubchem assays: 1829 (Project Summary), 1814 (Primary HTS)]; type: functional

Sequence of COUP transcription factor 2 (P24468 whole entry): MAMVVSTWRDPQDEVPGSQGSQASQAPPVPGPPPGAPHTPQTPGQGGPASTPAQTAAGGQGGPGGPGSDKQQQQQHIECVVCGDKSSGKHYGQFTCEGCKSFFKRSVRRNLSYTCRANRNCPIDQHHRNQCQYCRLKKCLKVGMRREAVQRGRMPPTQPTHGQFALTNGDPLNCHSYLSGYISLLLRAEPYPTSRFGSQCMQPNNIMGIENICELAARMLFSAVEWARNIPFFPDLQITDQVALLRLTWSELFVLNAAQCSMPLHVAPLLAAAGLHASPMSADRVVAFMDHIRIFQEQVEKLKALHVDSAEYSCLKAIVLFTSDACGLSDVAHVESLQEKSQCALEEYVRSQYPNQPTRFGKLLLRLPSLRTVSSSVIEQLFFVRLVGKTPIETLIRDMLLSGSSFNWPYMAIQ
Sequence of Nonstructural protein 1 (Q194T2 whole entry): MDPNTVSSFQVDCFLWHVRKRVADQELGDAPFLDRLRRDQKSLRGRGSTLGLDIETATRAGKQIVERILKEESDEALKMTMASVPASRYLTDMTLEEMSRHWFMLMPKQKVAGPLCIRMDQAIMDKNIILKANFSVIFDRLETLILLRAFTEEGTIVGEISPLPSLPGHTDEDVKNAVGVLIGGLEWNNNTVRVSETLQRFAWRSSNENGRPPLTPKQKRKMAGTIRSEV
Sequence of Protein Tat (P04608 whole entry): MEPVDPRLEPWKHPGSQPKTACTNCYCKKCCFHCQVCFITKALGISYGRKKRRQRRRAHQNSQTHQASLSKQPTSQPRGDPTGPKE
Sequence of Melanocortin receptor 4 (P32245 whole entry): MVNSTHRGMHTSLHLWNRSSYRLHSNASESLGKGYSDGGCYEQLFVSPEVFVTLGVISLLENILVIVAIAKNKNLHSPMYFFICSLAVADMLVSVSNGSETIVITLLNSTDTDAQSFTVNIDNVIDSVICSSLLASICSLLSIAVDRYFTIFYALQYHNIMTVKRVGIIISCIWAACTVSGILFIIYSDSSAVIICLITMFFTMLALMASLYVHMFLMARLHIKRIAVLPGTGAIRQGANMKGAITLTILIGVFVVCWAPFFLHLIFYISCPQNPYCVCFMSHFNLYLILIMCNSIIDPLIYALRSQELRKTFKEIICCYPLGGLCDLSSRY
Sequence of Protein-tyrosine kinase 2-beta (Q14289 whole entry): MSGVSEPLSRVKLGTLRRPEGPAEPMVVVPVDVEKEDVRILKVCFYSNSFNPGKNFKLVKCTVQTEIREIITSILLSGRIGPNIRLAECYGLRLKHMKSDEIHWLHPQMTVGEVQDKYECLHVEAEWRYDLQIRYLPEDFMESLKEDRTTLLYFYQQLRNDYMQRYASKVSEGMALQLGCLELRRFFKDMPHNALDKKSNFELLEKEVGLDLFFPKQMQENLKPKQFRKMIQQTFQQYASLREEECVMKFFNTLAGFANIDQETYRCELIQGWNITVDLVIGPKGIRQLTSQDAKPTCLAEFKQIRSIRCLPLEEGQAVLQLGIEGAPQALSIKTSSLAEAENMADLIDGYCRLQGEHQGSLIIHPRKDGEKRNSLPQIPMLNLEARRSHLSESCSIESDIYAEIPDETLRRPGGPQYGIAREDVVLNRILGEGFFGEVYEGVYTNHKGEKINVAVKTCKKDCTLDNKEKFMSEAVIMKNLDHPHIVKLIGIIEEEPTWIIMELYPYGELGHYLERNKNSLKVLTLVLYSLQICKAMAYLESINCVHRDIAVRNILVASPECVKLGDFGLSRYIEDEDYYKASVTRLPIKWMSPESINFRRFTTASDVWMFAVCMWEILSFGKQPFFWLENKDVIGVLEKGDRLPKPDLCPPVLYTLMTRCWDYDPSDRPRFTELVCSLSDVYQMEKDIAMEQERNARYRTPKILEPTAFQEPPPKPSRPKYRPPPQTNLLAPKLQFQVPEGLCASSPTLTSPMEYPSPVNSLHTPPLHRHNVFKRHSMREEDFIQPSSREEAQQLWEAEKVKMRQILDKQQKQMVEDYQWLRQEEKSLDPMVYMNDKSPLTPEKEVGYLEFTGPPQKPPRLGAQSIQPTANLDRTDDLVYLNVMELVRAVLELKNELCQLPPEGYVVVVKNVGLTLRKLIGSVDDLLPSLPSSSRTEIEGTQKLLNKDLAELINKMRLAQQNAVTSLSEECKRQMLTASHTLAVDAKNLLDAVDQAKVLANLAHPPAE
Sequence of Paired box protein Pax-8 (Q06710 whole entry): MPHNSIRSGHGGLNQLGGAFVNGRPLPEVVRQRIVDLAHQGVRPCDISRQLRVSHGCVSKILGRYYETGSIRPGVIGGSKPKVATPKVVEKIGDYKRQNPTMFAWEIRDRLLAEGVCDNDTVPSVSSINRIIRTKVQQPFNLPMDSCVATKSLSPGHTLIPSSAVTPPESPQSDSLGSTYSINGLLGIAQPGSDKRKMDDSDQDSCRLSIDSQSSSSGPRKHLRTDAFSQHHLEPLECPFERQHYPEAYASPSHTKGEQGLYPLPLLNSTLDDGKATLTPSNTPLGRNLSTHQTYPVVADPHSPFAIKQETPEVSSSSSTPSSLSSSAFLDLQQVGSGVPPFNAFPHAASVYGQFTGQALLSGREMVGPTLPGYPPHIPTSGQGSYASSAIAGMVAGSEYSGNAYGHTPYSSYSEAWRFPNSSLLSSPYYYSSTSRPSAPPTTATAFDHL

Structure (SMILES): CCOC(=O)c1cnc2ccc(C)cc2c1Nc1ccc(N2CCOCC2)cc1
- IC50 [1]: > 64.6 µM (inactive)
- EC50 [2]: 1.75 µM (active)
- IC50 [3]: 30.7 µM (active)
- IC50 [4]: 19 µM (inactive)
- IC50 [5]: 47.7 µM (not active)
- EC50 [6]: 41.5 µM (active)

Structure (SMILES): COc1ccc(C(=O)Nc2nc(-c3ccc(S(=O)(=O)N4CCOCC4)cc3)cs2)cc1
- AC50 [7]: 0.664 µM (active)
- AC50 [8]: 63.4 µM (active)
- AC50 [9]: 7.62 µM (active)
- AC50 [10]: 40.3 µM (active)

Structure (SMILES): COc1ccc(OC)c(N/C(C)=C/C(=O)c2ccc(C)o2)c1
- IC50 [11]: > 100 µM (inconclusive)

Structure (SMILES): O=C(Nc1ccc(SC(F)(F)F)cc1)c1ccccn1
- IC50 [12]: > 0.834 µM (active)
- IC50 [13]: > 67.5 µM (inactive)

Structure (SMILES): Cc1cccc(N2CCN(C(=O)c3[nH]c(C(F)(F)F)nc3-c3ccccc3)CC2)c1C
- IC50 [12]: > 67.5 µM (inactive)
- IC50 [13]: > 67.5 µM (inactive)

Structure (SMILES): CCNc1nc(-c2sc(NC(=O)C(C)(C)C)nc2C)c(-n2cc(-c3ccccc3)nn2)s1
- IC50 [14]: 10.7 µM (inactive)

Structure (SMILES): N#C[C@@H]1[C@H](c2ccc(-c3cccc(F)c3)cc2)[C@H](CO)N1C(=O)c1cccnc1
- AC50 [9]: 3.62 µM (active)
- AC50 [10]: 57.4 µM (active)

Structure (SMILES): C[C@H](CO)N1C[C@H](C)[C@@H](CN(C)S(=O)(=O)c2ccc(Cl)cc2)OCCCC[C@H](C)Oc2ccc(NS(=O)(=O)c3cccs3)cc2C1=O
- AC50 [15]: 21.4 µM (active)
- AC50 [16]: 15 µM (active)
- AC50 [17]: 4.18 µM (active)
- AC50 [18]: 12.7 µM (active)
- AC50 [19]: 24.5 µM (active)

Structure (SMILES): COc1cc2c(cc1[N+](=O)[O-])-c1ccc([N+](=O)[O-])cc1C2
- AC50 [20]: 12.4 µM (active)
- AC50 [21]: 26.7 µM (active)

Structure (SMILES): O=C(Nc1cccnc1)c1cc(-c2cc(Cl)ccc2O)n[nH]1
- EC50 [22]: 0.56 µM (active)
- EC50 [23]: > 12 µM (not active)
- EC50 [24]: 6.15 µM (active)
- EC50 [25]: 0.608 µM (active)
- EC50 [26]: 0.439 µM (active)
